# Experimental data published in patent US20260284240A1, “RADIOLABELED COMPOUND FOR USE IN A METHOD OF TREATING CARBONIC ANHYDRASE IX POSITIVE DISEASES” (DEBIOPHARM INTERNATIONAL S.A., priority 2023, published 2026).
# Read-outs that look alike come from different tables or passages of the source. Starred links: 1 amine or outer side, 2 acyl side, 3 side chain; linkers in the order of their positions; H or OH if unused. Positions of bridges follow the written chain, without caps; N, C: chain ends. Non-standard residues stand in square brackets, D forms with d. Residues, ends and D or L forms follow the SMILES beside them. *: point of attachment. Phe(3-NHCO(CH2)3SO2NH2) = N[C@@H](Cc1cccc(NC(=O)CCCS(N)(=O)=O)c1)C(=O)O; DOTA = O=C(O)CN1CCN(CC(=O)O)CCN(CC(=O)*)CCN(CC(=O)O)CC1; mXylylene = c1cc(C[*:1])cc(C[*:2])c1; X1 = O=C(CN1CCN([*:1])CC1)[*:2]
# Key:
# [1] = Cardiovascular and respiratory safety pharmacology (jacketed external telemetry) in dogs; assay type: in vivo; settings: dog, any dose or timepoint
# Description: (§1) The test item treatment led to unaffected body weights, weight gains, and food intake. Likewise, no treatment-related abnormalities were reported during ophthalmic examinations, urinalysis, blood biochemistry, coagulation, and hematology investigations. There were no related organ weight changes and macroscopic and microscopic observations at early and late necropsies. Jacketed external telemetry was used to evaluate the potential cardiovascular and respiratory effects in the Subset B. Cardiorespiratory telemetry recordings were performed during the pre-test, Day 1 and 14. […] Arterial blood pressure parameters (systolic and diastolic blood pressure and mean arterial pressure) were measured continuously during consecutive 30-minute periods at pre-dose and for up to 6 h after dosing and over consecutive 60-minute periods up to 24 h after dosing. The respiratory rate was monitored on the pre-test, Day 1 and Day 14 at 0.5, 1, 2, 3, 4, 6, 8, 12, 16, 20, and 24 h. […] The potential effects on central nervous system parameters were evaluated under restrained and non-restrained conditions using a FOB in Subset A. Neurologic, autonomic, and behavioral investigations were performed in the pre-test, pre-dose, and 1 hour after dosing on Day 1.
# [2] = Biodistribution of In-111-labeled compounds by SPECT/CT in HT-29 tumor-bearing mice; assay type: in vivo, mouse; settings: mouse
# Experimental: (§2) The effect on tumor uptake of prior injection of gelofusine for kidney protection was investigated in mice bearing the SK-RC-52 tumor. Biodistribution was evaluated using in vivo SPECT/CT imaging. Prior to the in vivo study the compounds (ligands) were initially radiolabeled with In-111 and the stability of radiolabeled compounds was evaluated in buffer at three different timepoints.
# (§3) The study was performed in female NMRI nude mice (approximately 6 weeks of age) from Janvier Labs, France, housed up to 5 mice per cage.
# (§4) The column was washed with 2 mL water, and then the final product was eluted from the column in EtOH solution (50%) • The sample was formulated in PBS to the final concentration of 150 MBq/mL and 5 nmol/mL.
# (§5) SK-RC-52 cells were cultured in RPMI 1640 with GlutaMax-I (Thermo Fisher Scientific #61870044) supplemented with 10% fetal bovine serum+1% penicillin/streptomycin, harvested, washed twice in RPMI 1640 and resuspended at 2×10^7 cells/mL in RPMI 1640. HT-29 cells were cultured in McCoy's 5a Medium Modified (Sigma #M9309). For inoculation of HT-29 cells, cells were harvested, washed twice in PBS and resuspended at 5×10^7 cells/mL in PBS. Cells were kept on ice until inoculation.
# (§6) Animals were anaesthetized (isoflurane, 2-4% in ambient air supplemented with 100% O2) prior to tumor inoculation. The tumor cells (100 μL suspension of either SK-RC-52 cells (2×10^6 cells/animal) or HT-29 cells (5×10^6 cells/animal)) were subcutaneously inoculated in the right flank using a 1-mL syringe equipped with a 27G needle. Tumor growth and animal weight were measured twice per week. Tumor size was measured by caliper and the volume was estimated using the following formula: 0.52×(length×width^2). When tumor sizes reached 150-250 mm^3, animals were randomized into groups (n=3) of similar average tumor volume and body weight.
# (§7) Animals were injected intravenously with In-111-labeled compounds (single bolus, 22.3-31.2 MBq, ~1 nmol ligand, injection volume: 100 μL) in the lateral tail vein using a 29G syringe.
# (§8) CT was performed with helical scan, 300 ms exposure, reconstruction resolution of 250 μm. SPECT was performed with multi-pinhole scan and a 30 s frame time. For the quantification of the radioactivity uptake, regions of interests (ROIs) were drawn over the tumor, kidney, liver, and heart (estimate of blood) identified on the images. Uptake was expressed as percent of injected dose per gram tissue (% ID/g).
# HT-29 tumor = experiment: as above; assay type: in vivo, mouse
# Experimental: as §2, §3, §4, §5, §6, §7, §8
# [3] = Functional observation battery (FOB), central nervous system, in dogs; assay type: in vivo; settings: dog, FOB 1 hour after dosing
# Description: as §1
# human CAIX = target: T1, human CAIX (Homo sapiens, UniProt Q16790); experiment: Surface Plasmon Resonance (SPR) binding to captured human CAIX (Biacore T200); settings: 25° C.
# T1 construct: purchased Sino Biological 10107-H02H
# Experimental: Surface Plasmon Resonance (SPR) studies were performed on a Biacore™ T200 using a ligand capture approach. Basically, anti-human Fc antibodies were immobilized on the surface of a sensor chip and CAIX was captured on the functionalized surface via its Fc Tag. Then, each compound was injected at increasing concentrations on the captured CAIX in order to measure the in real-time interaction of the compound to its target (i.e., the captured CAIX). The in real-time monitoring of the association and dissociation of the interaction gives access to the interaction kinetics parameters (i.e., the association and dissociation rate constants and the resulting affinity constants). […]
# • For each measurement, the raw surface plasmon resonance response (RU) was plotted against time (s) as a sensorgram using the Biacore™ T200 Control Software. • Raw data were corrected by double referencing with subtraction of the signal of both the reference flow-cell and the blank cycle. • The association and dissociation rate constants (ka and kd, respectively), as well as the dissociation constant KD and dissociation half-life t½ were determined from the corrected sensorgrams by fitting the data to a 1:1 Langmuir binding model with the Biacore™ T200 evaluation software.
smiles,measurement,setting,value
"CC(C)C[C@@H]1NC(=O)[C@H](Cc2cccc(NC(=O)CCCS(N)(=O)=O)c2)NC(=O)[C@H](CC(=O)O)NC(=O)[C@H]2CCCN2C(=O)[C@H](CCC(=O)O)NC(=O)[C@@H](NC(=O)[C@H](CCC(N)=O)NC(=O)CN2CCN(C(=O)CN3CCN(CC(=O)O)CCN(CC(=O)O)CCN(CC(=O)O)CC3)CC2)CSCc2cccc(c2)CSC[C@@H](C(N)=O)NC(=O)[C@H](CO)NC(=O)[C@H](Cc2c[nH]c3ccccc23)NC(=O)[C@H]([C@@H](C)O)NC1=O [DPI-4452, DOTA-PPAc-Gln-[Cys(3MeBn)-Glu-pro-Asp-Af3(Cpsu)-Leu-Thr-Trp-Ser-Cys]-NH2] ({DOTA}-[X1]QCE[dP]D[Phe(3-NHCO(CH2)3SO2NH2)]LTWSC-NH2; linker 3-12 via mXylylene)","Cardiovascular or respiratory parameters (heart rate, arterial blood pressure, ECG, respiratory rate)",[1],no related effect on cardiovascular or respiratory parameters
same,tissue uptake,"[2]; ht-29 tumor, HT-29, Mean ± SEM, N=3, read-out: Peak Tumor Uptake",5.21 ± 1.22 %ID/g
same,tissue uptake,"[2]; kidney, HT-29 mice, read-out: Peak Kidney uptake",5.37 ± 1.45 %ID/g
same,% remaining tumor uptake at 24 h p.i.,HT-29 tumor; HT-29,65.8 ± 3.8%
same,Time to peak uptake in tumor,HT-29 tumor; HT-29,2 h
same,Blood uptake at 4 h p.i.,HT-29 tumor; HT-29 mice,0.04 ± 0.002 % ID/g
same,Kidney uptake at 24 h p.i.,HT-29 tumor; HT-29 mice,1.41 ± 0.11 % ID/g
same,Liver uptake at 4 h p.i.,HT-29 tumor; HT-29 mice,0.12 ± 0.005 % ID/g
same,"Central nervous system (neurologic, autonomic, behavioral domains)",[3],No effects were observed on the central nervous system
same,t1/2 (dissociation half-life),human CAIX,1.65 h
